Experimental findings from patent US20230203063A1, “TRICYCLIC PYRIDONES AND PYRIMIDONES” (Erasca, Inc., priority 2019, published 2023) are described below.

Each structure is given as a SMILES string.

For the test, the target named is T1, mutant G12C K-RAS (Homo sapiens, UniProt P01116, G12C).
T1 construct: made in house; host or cells: E. coli BL21
In words: covalent adduct formation (CAF) with mutant G12C K-RAS. More on the design: covalent adduct formation (CAF): unit not given here. As to conditions: for % CAF @ 10 uM, 1 h: Table 6; for covalent adduct formation (CAF): Table 7, 10 micromolar, after 60 minutes. The format is binding. On the procedure:
Embodiments disclosed herein are further illustrated by the following examples in Tables 1-4 and the Examples hereinbelow. The Tables indicate the compound number, structure, the observed mass spectral molecular weight peak, and covalent adduct formation (CAF) with a mutant G12C K-RAS after 60 minutes at a concentration of 10 micromolar.

As for `C=CC(=O)N1CCN(c2nc(=O)n3c4c(c(-c5c(O)cccc5F)c(Cl)cc24)OC[C@H]3CN2CCOCC2)[C@@H](C)C1` [Example 198, (3R,10S)-7-((S)-4-acryloyl-2-methvlpiperazin-1-yl)-9-chloro-10-(2-fluoro-6-hydroxyphenyl)-3-(morpholinomethyl)-2,3-dihydro-5H-[1,4]oxazino[2,3,4-ij]quinazolin-5-one], the “% CAF @ 10 uM, 1 h” value came to 100%.

On to `C=CC(=O)N1CCN(c2nc(=O)n3c4c(c(-c5c(O)cccc5F)c(Cl)cc24)OC[C@H]3CN2CCOCC2)[C@@H](C)C1` [Example 199, (3R,10R)-7-((S)-4-aciyloyl-2-methylpiperazin-1-yl)-9-chloro-10-(2-fluoro-6-hydroxyphenyl)-3-(morpholinomethyl)-2,3-dihydro-5H-[1,4]oxazino[2,3,4-ij]quinazolin-5-one], for which the “% CAF @ 10 uM, 1 h” value worked out at 0%.

As for `C=CC(=O)N1C[C@H](C)N(c2nc(=O)n3c4c(c(-c5c(F)cccc5C(F)F)ccc24)OCC3)C[C@H]1C` [Example 200, 7-((2S,5R)-4-acryloyl-2,5-dimethylpiperazin-1-yl)-10-(2-(difluoromethyl)-6-fluorophenyl)-2,3-dihydro-5H-[1,4]oxazino[2,3,4-ij]quinazolin-5-one], the “% CAF @ 10 uM, 1 h” value was 0%.

Regarding `C=CC(=O)N1C[C@H](C)N(c2nc(=O)n3c4c(c(-c5c(F)ccc6[nH]cnc56)ccc24)OCC3)C[C@H]1C` [Example 201, 7-((2S,5R)-4-acryloyl-2,5-dimethylpiperazin-1-yl)-10-(5-fluoro-1H-benzo[d]imidazol-4-yl)-2,3-dihydro-5H-[1,4]oxazino[2,3,4-ij]quinazolin-5-one], the “% CAF @ 10 uM, 1 h” value was determined as 0%.

As to `C=CC(=O)N1C[C@H](C)N(c2nc(=O)n3c4c(c(-c5c(C)ccc6[nH]nnc56)ccc24)OCC3)C[C@H]1C` [Example 219, 7-((2S,5R)-4-acryloyl-2,5-dimethylpiperazin-1-yl)-10-(5-methyl-1H-benzo[d][1,2,3]triazol-4-yl)-2,3-dihydro-5H-[1,4]oxazino[2,3,4-ij]quinazolin-5-one], the “% CAF @ 10 uM, 1 h” value is 0%.

On to `C=CC(=O)N1C[C@H](C)N(c2nc(=O)n3c4c(c(-c5c(O)cccc5F)c(Cl)cc24)OC[C@@H]3CN2CCC(F)(F)C2)C[C@H]1C` [Example 220, (3S,10R)-7-((2S,5R)-4-acryloyl-2,5-dimethylpiperazin-1-yl)-9-chloro-3-((3,3-difluoropyrrolidin-1-yl)methyl)-10-(2-fluoro-6-hydroxyphenyl)-2,3-dihydro-5H-[1,4]oxazino[2,3,4-ij]quinazolin-5-one], for which the “% CAF @ 10 uM, 1 h” value turned out to be 0%.

As to `C=CC(=O)N1C[C@H](C)N(c2nc(=O)n3c4c(c(-c5c(F)ccc6[nH]nnc56)ccc24)OCC3)C[C@H]1C` [Example 223, 7-((2S,5R)-4-acryloyl-2,5-dimethylpiperazin-1-yl)-10-(5-fluoro-1H-benzo[d][1,2,3]triazol-4-yl)-2,3-dihydro-5H-[1,4]oxazino[2,3,4-ij]quinazolin-5-one], the “% CAF @ 10 uM, 1 h” value is given as 0%.

For the molecule `C=CC(=O)N1C[C@H](C)N(c2nc(=O)n3c4c(c(-c5c(F)ccc6cc[nH]c(=O)c56)ccc24)OCC3)C[C@H]1C` [Example 224, 7-((2S,5R)-4-acryloyl-2,5-dimethylpiperazin-1-yl)-10-(7-fluoro-1-oxo-1,2-dihydroisoquinolin-8-yl)-2,3-dihydro-5H-[1,4]oxazino[2,3,4-ij]quinazolin-5-one], the “% CAF @ 10 uM, 1 h” value was 0%.

With `C=CC(=O)N1C[C@H](C)N(c2nc(=O)n3c4c(c(-c5c(F)ccc6c5C(=O)NC6)ccc24)OCC3)C[C@H]1C` [Example 231, 7-((2S,5R)-4-acryloyl-2,5-dimethylpiperazin-1-yl)-10-(5-fluoro-3-oxoisoindolin-4-yl)-2,3-dihydro-5H-[1,4]oxazino[2,3,4-ij]quinazolin-5-one], the “% CAF @ 10 uM, 1 h” value is on record as 0%.

In the case of `C=CC(=O)N1C[C@H](C)N(c2nc(=O)n3c4c(c(-c5c(C)ccc6[nH]ncc56)c(Cl)cc24)OC[C@@H]3CCCN2C3CCC2COC3)C[C@H]1C` [Example 281, (3S,10S)-3-(3-(3-oxa-8-azabicyclo[3.2.1]octan-8-yl)propyl)-7-((2S,5R)-4-acryloyl-2,5-dimethylpiperazin-1-yl)-9-chloro-10-(5-methyl-1H-indazol-4-yl)-2,3-dihydro-5H-[1,4]oxazino [2,3,4-ij] quinazolin-5-one], the “% CAF @ 10 uM, 1 h” value was 0%.

Take `C=CC(=O)N1C[C@H](C)N(c2nc(=O)n3c4c(c(-c5ccc(F)cc5F)c(Cl)cc24)OC[C@H]3CCCN2C3CCC2CN(C)C3)C[C@H]1C` [Example 321, (3R)-7-((2S,5R)-4-acryloyl-2,5-dimethylpiperazin-1-yl)-9-chloro-10-(2,4-difluorophenyl)-3-(3-(3-methyl-3,8-diazabicyclo[3.2.1]octan-8-yl)propyl)-2,3-dihydro-5H-[1,4]oxazino [2,3,4-ij] quinazolin-5-one]: the “% CAF @ 10 uM, 1 h” value was 71.2%.

Turning to `C=CC(=O)N1C[C@H](C)N(c2nc(=O)n3c4c(c(-c5c(C)ccc6[nH]ncc56)c(Cl)cc24)OC[C@H]3CCCN2C[C@@H]3C[C@H]2CO3)C[C@H]1C` [Example 325, (3R,10S)-3-(3-((1S,4S)-2-oxa-5-azabicyclo[2.2.1]heptan-5-yl)propyl)-7-((2S,5R)-4-acryloyl-2,5-dimethylpiperazin-1-yl)-9-chloro-10-(5-methyl-1H-indazol-4-yl)-2,3-dihydro-5H-[1,4]oxazino [2,3,4-ij] quinazolin-5-one], the “% CAF @ 10 uM, 1 h” value was found to be 0%.

For the molecule `C=CC(=O)N1CCN(c2nc(=O)n3c4c(c(-c5c(F)cc(F)cc5F)c(Cl)cc24)SC[C@H]3CCCN2C[C@@H]3C[C@H]2CO3)[C@@H](C)C1` [Example 339, (R)-3-(3-((1S,4S)-2-oxa-5-azabicyclo-[2.2.1]heptan-5-yl)-propyl)-7-((S)-4-acryloyl-2-methyl-piperazin-1-yl)-9-chloro-10-(2,4,6-trifluorophenyl)-2H-[1,4]thiazino[2,3,4-ij]-quinazolin-5(3H)-one], the “covalent adduct formation (CAF)” value is on record as 96.6.

On to `C=CC(=O)N1CCN(c2nc(=O)n3c4c(c(-c5c(F)cc(F)cc5F)c(Cl)cc24)SC[C@@H]3CCCN2C[C@@H]3C[C@H]2CO3)[C@@H](C)C1` [Example 340, (S)-3-(3-((1S,4S)-2-oxa-5-azabicyclo-[2.2.1]heptan-5-yl)-propyl)-7-((S)-4-acryloyl-2-methyl-piperazin-1-yl)-9-chloro-10-(2,4,6-trifluorophenyl)-2H-[1,4]thiazino[2,3,4-ij]-quinazolin-5(3H)-one], for which the “covalent adduct formation (CAF)” value was found to be 96.9.

Consider `C=CC(=O)N1CCN(c2nc(=O)n3c4c(c(-c5ccc(F)cc5F)c(Cl)cc24)SC[C@H]3CCCN2C[C@@H]3C[C@H]2CO3)[C@@H](C)C1` [Example 341, (3R)-3-(3-((1S,4S)-2-oxa-5-azabicyclo[2.2.1]heptan-5-yl)propyl)-7-((S)-4-acryloyl-2-methylpiperazin-1-yl)-9-chloro-10-(2,4-difluorophenyl)-2H-[1,4]thiazino[2,3,4-ij]quinazolin-5 (3H)-one], for which the “covalent adduct formation (CAF)” value is given as 96.5.

As to `C=CC(=O)N1CCN(c2nc(=O)n3c4c(c(-c5ccc(F)cc5F)c(Cl)cc24)SC[C@@H]3CCCN2C[C@@H]3C[C@H]2CO3)[C@@H](C)C1` [Example 342, (3S)-3-(3-((1S,4S)-2-oxa-5-azabicyclo [2.2.1]heptan-5-yl)-propyl)-7-((S)-4-acryloyl-2-methyl-piperazin-1-yl)-9-chloro-10-(2,4-difluorophenyl)-2H-[1,4]thiazino[2,3,4-ij]-quinazolin-5(3H)-one], the “covalent adduct formation (CAF)” value is listed as 94.7.

`C=CC(=O)N1CCN(c2nc(=O)n3c4c(c(-c5c(F)cc(F)cc5F)c(Cl)cc24)SC[C@@H]3CC2CCN(C)CC2)[C@@H](C)C1` [Example 343, (S)-7-((S)-4-acryloyl-2-methylpiperazin-1-yl)-9-chloro-3-((1-methylpiperidin-4-yl)-methyl)-10-(2,4,6-trifluorophenyl)-2H-[1,4]thiazino[2,3,4-ij]-quinazolin-5(3H)-one]: the “covalent adduct formation (CAF)” value worked out at 96.7.

Take `C=CC(=O)N1CCN(c2nc(=O)n3c4c(c(-c5c(F)cc(F)cc5F)c(Cl)cc24)SC[C@H]3CC2CCN(C)CC2)[C@@H](C)C1` [Example 344, (R)-7-((S)-4-acryloyl-2-methylpiperazin-1-yl)-9-chloro-3-((1-methylpiperidin-4-yl)-methyl)-10-(2,4,6-trifluorophenyl)-2H-[1,4]thiazino[2,3,4-ij]-quinazolin-5(3H)-one]: the “covalent adduct formation (CAF)” value was determined as 94.8.

On to `C=CC(=O)N1CCN(c2nc(=O)n3c4c(c(-c5ccc(F)cc5F)c(Cl)cc24)SC[C@H]3CC2CCN(C)CC2)[C@@H](C)C1` [Example 345, (3R)-7-((S)-4-acryloyl-2-methylpiperazin-1-yl)-9-chloro-10-(2,4-difluorophenyl)-3-((1-methylpiperidin-4-yl)-methyl)-2H-[1,4]-thiazino-[2,3,4-ij]-quinazolin-5(3H)-one], for which the “covalent adduct formation (CAF)” value is reported as 82.4.

On to `C=CC(=O)N1CCN(c2nc(=O)n3c4c(c(-c5ccc(F)cc5F)c(Cl)cc24)SC[C@H]3CN2CCN(CC)CC2)[C@@H](C)C1` [Example 346, (3R)-7-((S)-4-acryloyl-2-methylpiperazin-1-yl)-9-chloro-10-(2,4-difluorophenyl)-3-((4-ethylpiperazin-1-yl)-methyl)-2H-[1,4]-thiazino[2,3,4-ij]-quinazolin-5(3H)-one], for which the “covalent adduct formation (CAF)” value was determined as 79.3.
